Reference: PubChem BioAssay AID1259407 (Chemical Carcinogenesis Research Information System (CCRIS), 2018)
The source made the active and inactive calls. No rule for the calls is given here.

System: CCRIS mutagenicity, Ames/micronucleus/aberration tests
Experiment: CCRIS mutagenicity studies
[1] = Test System: AMES SALMONELLA TYPHIMURIUM, Strain/Indicator: TA98, Metabolic Activation: NONE, Method: STANDARD PLATE
[2] = Test System: AMES SALMONELLA TYPHIMURIUM, Strain/Indicator: TA98, Metabolic Activation: RAT, LIVER, S-9, AROCLOR 1254, Method: STANDARD PLATE
[3] = Test System: AMES SALMONELLA TYPHIMURIUM, Strain/Indicator: TA100, Metabolic Activation: NONE, Method: STANDARD PLATE
[4] = Test System: AMES SALMONELLA TYPHIMURIUM, Strain/Indicator: TA100, Metabolic Activation: RAT, LIVER, S-9, AROCLOR 1254, Method: STANDARD PLATE
[5] = Test System: AMES SALMONELLA TYPHIMURIUM, Strain/Indicator: TA1535, Metabolic Activation: NONE, Method: STANDARD PLATE
[6] = Test System: AMES SALMONELLA TYPHIMURIUM, Strain/Indicator: TA1535, Metabolic Activation: RAT, LIVER, S-9, AROCLOR 1254, Method: STANDARD PLATE
[7] = Test System: AMES SALMONELLA TYPHIMURIUM, Strain/Indicator: TA1537, Metabolic Activation: NONE, Method: STANDARD PLATE
[8] = Test System: AMES SALMONELLA TYPHIMURIUM, Strain/Indicator: TA1537, Metabolic Activation: RAT, LIVER, S-9, AROCLOR 1254, Method: STANDARD PLATE
[9] = Test System: AMES SALMONELLA TYPHIMURIUM, Strain/Indicator: TA1538, Metabolic Activation: NONE, Method: STANDARD PLATE
[10] = Test System: AMES SALMONELLA TYPHIMURIUM, Strain/Indicator: TA1538, Metabolic Activation: RAT, LIVER, S-9, AROCLOR 1254, Method: STANDARD PLATE
[11] = Test System: AMES SALMONELLA TYPHIMURIUM, Strain/Indicator: TA102, Metabolic Activation: NONE, Method: PREINCUBATION
[12] = Test System: AMES SALMONELLA TYPHIMURIUM, Strain/Indicator: TA102, Metabolic Activation: RAT, LIVER, S-9, AROCLOR 1254, Method: PREINCUBATION

For `CC/C(=C(\c1ccccc1)c1ccc(OCCN(C)C)cc1)c1ccccc1`, the mutagenic call (End Point: IN VITRO CHROMOSOMAL ABERRATIONS, Test System: SYRIAN HAMSTER EMBRYO (SHE) CELLS, Metabolic Activation: NONE) was “inactive; negative”, the mutagenic call (End Point: IN VITRO MICRONUCLEUS, Test System: AHH-1 CELLS, Metabolic Activation: NONE) was “inactive; negative” and the mutagenic call (End Point: IN VITRO MICRONUCLEUS, Test System: MCL-5 CELLS, Metabolic Activation: NONE) was “active; positive”. The mutagenic call (Test System: AMES SALMONELLA TYPHIMURIUM, Strain/Indicator: TA98, Metabolic Activation: HAMSTER, LIVER, S-9, AROCLOR 1254, Method: STANDARD PLATE) was “inactive; negative”, the mutagenic call [1] was “inactive; negative” and the mutagenic call [2] was “inactive; negative”. For the same compound, the mutagenic call (Test System: AMES SALMONELLA TYPHIMURIUM, Strain/Indicator: TA100, Metabolic Activation: HAMSTER, LIVER, S-9, AROCLOR 1254, Method: STANDARD PLATE) was “inactive; negative”, the mutagenic call [3] was “inactive; negative” and the mutagenic call [4] was “inactive; negative”. For the same compound, the mutagenic call (Test System: AMES SALMONELLA TYPHIMURIUM, Strain/Indicator: TA1535, Metabolic Activation: HAMSTER, LIVER, S-9, AROCLOR 1254, Method: STANDARD PLATE) was “inactive; negative”, the mutagenic call [5] was “inactive; negative” and the mutagenic call [6] was “inactive; negative”. For the same compound, the mutagenic call (Test System: AMES SALMONELLA TYPHIMURIUM, Strain/Indicator: TA1537, Metabolic Activation: HAMSTER, LIVER, S-9, AROCLOR 1254, Method: STANDARD PLATE) was “inactive; negative”, the mutagenic call [7] was “inactive; negative” and the mutagenic call [8] was “inactive; negative”. For the same compound, the mutagenic call (Test System: AMES SALMONELLA TYPHIMURIUM, Strain/Indicator: TA1538, Metabolic Activation: HAMSTER, LIVER, S-9, AROCLOR 1254, Method: STANDARD PLATE) was “inactive; negative”, the mutagenic call [9] was “inactive; negative” and the mutagenic call [10] was “inactive; negative”. The mutagenic call (Test System: CHINESE HAMSTER V-79, Strain/Indicator: V-79 (HPRT)/6-THIOGUANINE, Metabolic Activation: NONE) was “inactive; negative”.

With `O[C@H]1C=Cc2c(ccc3cc4c(cc23)[C@H](O)[C@@H](O)c2ccccc2-4)[C@@H]1O` the mutagenic call [4] was “inactive; negative”.

For `O=C1c2ccc(O)c(O)c2C(=O)c2c(O)ccc(O)c21`, the mutagenic call [2] was “inactive; negative”, the mutagenic call [3] was “inactive; negative” and the mutagenic call [4] was “inactive; negative”. For the same compound, the mutagenic call [5] was “inactive; negative”, the mutagenic call [6] was “inactive; negative” and the mutagenic call [7] was “active; positive”. The mutagenic call [8] was “active; positive” and the mutagenic call [10] was “inactive; negative”.

In the case of `C[C@]12CC[C@H](OC(=O)/C=C/c3cccc(N(CCCl)CCCl)c3)CC1=CC[C@@H]1[C@@H]2CC[C@]2(C)NC(=O)CC[C@@H]12`, the mutagenic call [1] is reported as “inactive; negative”, the mutagenic call [2] is reported as “inactive; negative” and the mutagenic call [3] is reported as “inactive; negative”. For the same compound, the mutagenic call [4] was “inactive; negative”, the mutagenic call [5] was “active; positive” and the mutagenic call [6] was “active; positive”. For the same compound, the mutagenic call [7] was “inactive; negative” and the mutagenic call [8] was “inactive; negative”.

`O=C1c2cc(S(=O)(=O)O)ccc2C(=O)c2c1cccc2[N+](=O)[O-]` was tested, and the mutagenic call [1] was “active; positive”, the mutagenic call [2] was “active; positive” and the mutagenic call [4] was “inactive; negative”. For the same compound, the mutagenic call [5] was “inactive; negative”, the mutagenic call [6] was “inactive; negative” and the mutagenic call [7] was “active; positive”. The mutagenic call [8] was “active; positive”, the mutagenic call [9] was “active; positive” and the mutagenic call [10] was “active; positive”.

`CC1(C2CO2)CO1` (stereo unspecified) was tested, and the mutagenic call [1] was “active; positive” and the mutagenic call [3] was “active; positive”.

`C/C=C/C=C/C(=O)O` was tested, and the mutagenic call (Test System: AMES SALMONELLA TYPHIMURIUM, Strain/Indicator: TA97A, Metabolic Activation: NONE, Method: PREINCUBATION) was “inactive; negative”, the mutagenic call (Test System: AMES SALMONELLA TYPHIMURIUM, Strain/Indicator: TA97A, Metabolic Activation: RAT, LIVER, S-9, AROCLOR 1254, Method: PREINCUBATION) was “inactive; negative” and the mutagenic call [11] was “inactive; negative”. The mutagenic call [12] was “inactive; negative” and the mutagenic call (Test System: CHINESE HAMSTER V-79, Strain/Indicator: V-79/6-THIOGUANINE, Metabolic Activation: NONE, Method: FLASK ASSAY) was “active; positive”.

`Nc1ccc(Oc2ccc([N+](=O)[O-])cc2)cc1` was tested, and the mutagenic call (Test System: AMES SALMONELLA TYPHIMURIUM, Strain/Indicator: TA98(NR), Metabolic Activation: NONE, Method: PREINCUBATION) was “inactive; negative”, the mutagenic call (Test System: AMES SALMONELLA TYPHIMURIUM, Strain/Indicator: TA98(NR), Metabolic Activation: RAT, LIVER, S-9, AROCLOR 1254, Method: PREINCUBATION) was “active; positive” and the mutagenic call (Test System: AMES SALMONELLA TYPHIMURIUM, Strain/Indicator: TA98, Metabolic Activation: NONE, Method: PREINCUBATION) was “active; positive”. The mutagenic call (Test System: AMES SALMONELLA TYPHIMURIUM, Strain/Indicator: TA98, Metabolic Activation: RAT, LIVER, S-9, AROCLOR 1254, Method: PREINCUBATION) was “active; positive”, the mutagenic call (Test System: AMES SALMONELLA TYPHIMURIUM, Strain/Indicator: TA100(NR), Metabolic Activation: NONE, Method: PREINCUBATION) was “active; positive” and the mutagenic call (Test System: AMES SALMONELLA TYPHIMURIUM, Strain/Indicator: TA100(NR), Metabolic Activation: RAT, LIVER, S-9, AROCLOR 1254, Method: PREINCUBATION) was “active; positive”. For the same compound, the mutagenic call (Test System: AMES SALMONELLA TYPHIMURIUM, Strain/Indicator: TA100, Metabolic Activation: NONE, Method: PREINCUBATION) was “active; positive” and the mutagenic call (Test System: AMES SALMONELLA TYPHIMURIUM, Strain/Indicator: TA100, Metabolic Activation: RAT, LIVER, S-9, AROCLOR 1254, Method: PREINCUBATION) was “active; positive”.

With `O=[N+]([O-])c1ccc2[nH]ccc2c1` the mutagenic call [1] was “active; positive”.

In the case of `COc1c(O)cc2c3c(cc4ccccc4c13)NC2=O`, the mutagenic call (Test System: AMES SALMONELLA TYPHIMURIUM, Strain/Indicator: TM677/8-AZAGUANINE, Metabolic Activation: NONE, Method: SUSPENSION/PLATE) is reported as “inactive; negative”.

`C1CCC2OCCOCCOC3CCCCC3OCCOCCOC2C1` (stereo unspecified) was tested, and the mutagenic call [1] was “inactive; negative”, the mutagenic call [2] was “inactive; negative” and the mutagenic call [3] was “inactive; negative”. The mutagenic call [4] was “inactive; negative”, the mutagenic call (Test System: AMES SALMONELLA TYPHIMURIUM, Strain/Indicator: TA1530, Metabolic Activation: NONE, Method: STANDARD PLATE) was “inactive; negative” and the mutagenic call (Test System: AMES SALMONELLA TYPHIMURIUM, Strain/Indicator: TA1530, Metabolic Activation: RAT, LIVER, S-9, AROCLOR 1254, Method: STANDARD PLATE) was “inactive; negative”. The mutagenic call [7] was “inactive; negative” and the mutagenic call [8] was “inactive; negative”.

With `CCCCC(C)=O` the mutagenic call (Test System: CHINESE HAMSTER V-79, Strain/Indicator: V-79 (HPRT)/6-THIOGUANINE, Metabolic Activation: NONE, Method: STANDARD PLATE) was “inactive; negative” and the mutagenic call (Test System: CHINESE HAMSTER V-79, Strain/Indicator: V-79 (HPRT)/6-THIOGUANINE, Metabolic Activation: RAT LIVER S-9, Method: STANDARD PLATE) was “inactive; negative”.

With `CCOC(=O)C[n+]1csc2ccccc21` the mutagenic call [1] was “inactive; negative”, the mutagenic call [3] was “inactive; negative” and the mutagenic call [5] was “inactive; negative”. The mutagenic call (Test System: E.COLI, Strain/Indicator: WP2, Metabolic Activation: NONE, Method: STANDARD PLATE) was “inactive; negative” and the mutagenic call (Test System: E.COLI, Strain/Indicator: WP2 UVRA, Metabolic Activation: NONE, Method: STANDARD PLATE) was “inactive; negative”.

In the case of `Nc1nc2c(ncn2[C@@H]2O[C@H](COP(=O)(O)O)[C@@H](O)[C@H]2O)c(=O)[nH]1`, the mutagenic call (Test System: AMES SALMONELLA TYPHIMURIUM, Strain/Indicator: TA97, Metabolic Activation: NONE, Method: PREINCUBATION) is reported as “inactive; negative”, the mutagenic call (Test System: AMES SALMONELLA TYPHIMURIUM, Strain/Indicator: TA97, Metabolic Activation: RAT, LIVER, S-9, AROCLOR 1254, Method: PREINCUBATION) is reported as “inactive; negative” and the mutagenic call [11] is reported as “inactive; negative”. The mutagenic call [12] was “inactive; negative”.
